target: T1, NA transporter (Rattus norvegicus, UniProt Q9WTR4); test: Noradrenalin uptake inhibition (NA-uptake) in synaptosomes; format: biochemical; conditions: rat hypothalamus synaptosomes
T1 construct: synaptosomes from rat brain regions were freshly isolated; from tissue; host or cells: P2 synaptosome fraction from hypothalamus of male rat brain
From the text: Tests on Noradrenalin Uptake Inhibition (NA-Uptake Inhibition)
In order to be able to carry out these in vitro studies, synaptosomes from rat brain regions were freshly isolated.

T1 sequence (Q9WTR4 1-597): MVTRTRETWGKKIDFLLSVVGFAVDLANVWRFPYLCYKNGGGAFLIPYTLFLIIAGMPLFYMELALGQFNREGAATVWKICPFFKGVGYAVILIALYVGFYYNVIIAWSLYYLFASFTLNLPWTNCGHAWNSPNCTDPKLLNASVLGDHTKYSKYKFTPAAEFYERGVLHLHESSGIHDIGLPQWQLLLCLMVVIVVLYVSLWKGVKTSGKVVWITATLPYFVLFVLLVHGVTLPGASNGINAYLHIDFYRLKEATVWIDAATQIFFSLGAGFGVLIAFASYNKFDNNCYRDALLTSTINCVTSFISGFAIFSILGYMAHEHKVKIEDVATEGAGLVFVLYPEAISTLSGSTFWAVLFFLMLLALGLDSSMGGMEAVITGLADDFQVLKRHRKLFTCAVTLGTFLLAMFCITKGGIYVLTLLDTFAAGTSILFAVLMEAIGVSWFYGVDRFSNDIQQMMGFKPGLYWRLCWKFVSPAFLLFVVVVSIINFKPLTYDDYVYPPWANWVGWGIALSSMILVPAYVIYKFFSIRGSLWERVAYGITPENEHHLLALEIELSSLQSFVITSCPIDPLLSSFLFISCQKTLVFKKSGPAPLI

| Compound | inhibition at 10 µM | NA-uptake, 10 μM, % inhibition |
| --- | --- | --- |
| O=C(NC1CCCC1OCc1ccccc1)C1=NOC2(CCN(S(=O)(=O)c3cccc(C(F)(F)F)c3)CC2)C1 (stereo not shown) [Example 201, 8-(3-trifluoromethyl-benzenesulphonyl)-1-oxa-2,8-diaza-spiro[4,5]dec-2-ene-3-carboxylic acid (2-benzyloxy-cyclopentyl)-amide] | 58% |  |
| O=C(Nc1ccccc1)C1=NOC2(CCN(C(=O)c3cccc(Cl)c3Cl)CC2)C1 [Example 172, 8-(2,3-dichloro-benzoyl)-1-oxa-2,8-diaza-spiro[4,5]dec-2-ene-3-carboxylic acid phenylamide] | 41% |  |
| O=C(NCC1CC1)C1=NOC2(CCN(C(=O)c3ccc4ccccc4c3)CC2)C1 [Example 204, 8-(naphthalene-2-carbonyl)-1-oxa-2,8-diaza-spiro[4,5]dec-2-ene-3-carboxylic acid cyclopropylmethyl-amide] | 48% |  |
| COc1ccc(Br)cc1S(=O)(=O)N1CCC2(CC1)CC(C(=O)NC1CCCC1)=NO2 [Example 173, 8-(5-bromo-2-methoxy-benzenesulphonyl)-1-oxa-2,8-diaza-spiro[4,5]dec-2-ene-3-carboxylic acid cyclopentylamide] | 60% |  |
| O=C(NCC1CC1)C1=NOC2(CCN(C(=O)CCCOc3ccccc3)CC2)C1 [Example 118, 8-(4-phenoxy-butyryl)-1-oxa-2,8-diaza-spiro[4,5]dec-2-ene-3-carboxylic acid cyclopropylmethyl-amide] | 46% |  |
| O=C(C1=NOC2(CCN(S(=O)(=O)c3cc(Cl)ccc3Cl)CC2)C1)N1CCN(Cc2ccccc2)CC1 [Example 209, (4-benzyl-piperazin-l-yl)-[8-(2,5-dichloro-benzenesulphonyl)-1-oxa-2,8-diaza-spiro[4,5]dec-2-en-3-yl]-methanone] |  | 51% |
| Cc1cc(C(=O)N2CCC3(CC2)CC(C(=O)NCc2ccccc2)=NO3)c(C)o1 [Example 217, 8-(2,5-dimethyl-furan-3-carbonyl)-1-oxa-2,8-diaza-spiro[4,5]dec-2-ene-3-carboxylic acid benzylamide] | 40% |  |
| O=C(NCC1CC1)C1=NOC2(CCN(C(=O)c3cc(C(F)(F)F)ccc3Cl)CC2)C1 [Example 120, 8-(2-chloro-5-trifluoromethyl-benzoyl)-1-oxa-2,8-diaza-spiro(4,5]dec-2-ene-3-carboxylic acid cyclopropylmethyl-amide] | 40% |  |
| O=C(NCCc1cccc(C(F)(F)F)c1)C1=NOC2(CCN(S(=O)(=O)c3ccc(F)cc3)CC2)C1 [Example 196] |  | 40% |
| CCN(CCNC(=O)C1=NOC2(CCN(S(=O)(=O)N(C)C)CC2)C1)c1cccc(C)c1 [Example 216, 8-dimethylsulphamoyl-1-oxa-2,8-diaza-spiro[4,5]dec-2-ene-3-carboxylic acid [2-(ethyl-m-tolyl-amino)-ethyl]amide] | 40% |  |
| COc1ccc(C(=O)N2CCC3(CC2)CC(C(=O)NCc2ccccc2)=NO3)cc1 [Example 131, 8-(4-methoxy-benzoyl)-1-oxa-2,8-diaza-spiro[4,5]dec-2-ene-3-carboxylic acid benzylamide] | 57% |  |
| O=C(NC1CCCC1OCc1ccccc1)C1=NOC2(CCN(S(=O)(=O)c3ccc(Cl)s3)CC2)C1 (stereo not shown) [Example 191] |  | 74% |
| CC(C)CC(NC(=O)C1=NOC2(CCN(S(=O)(=O)c3cccs3)CC2)C1)C(=O)OC(C)(C)C (stereo not shown) [Example 145, 4-methyl-2-{[8-(thiophene-2-sulphonyl)-1-oxa-2,8-diaza-spiro[4,5]dec-2-ene-3-carbonyl]-amino]-pentanoic acid tert-butyl ester] | 46% |  |
| O=C(NCc1ccccc1)C1=NOC2(CCN(C(=O)c3ccc(F)c(Cl)c3)CC2)C1 [Example 205, 8-(3-chloro-4-fluorobenzoyl)-1-oxa-2,8-diaza-spiro[4,5]dec-2-ene-3-carboxylic acid benzylamide] | 46% |  |
| N#CCCN(CCc1ccccn1)C(=O)C1=NOC2(CCN(S(=O)(=O)c3ccc(F)cc3)CC2)C1 [Example 167, 8-(4-fluoro-benzenesulphonyl)-1-oxa-2,8-diaza-spiro[4,5]dec-2-ene-3-carboxylic acid (2-cyano-ethyl)-(2-pyridin-2-yl-ethyl)-amide] | 63% |  |
| CN(CCCNC(=O)C1=NOC2(CCN(S(=O)(=O)c3ccc(Cl)s3)CC2)C1)c1ccccc1 [Example 89] |  | 68% |
| O=C(NCc1cccs1)C1=NOC2(CCN(C(=O)CCCOc3ccccc3)CC2)C1 [Example 183] |  | 67% |
| CCSCCNC(=O)C1=NOC2(CCN(C(=O)c3cc(C(C)(C)C)nn3C)CC2)C1 [Example 185, 8-(5-tert-butyl-2-methyl-2H-pyrazole-3-carbonyl)-1-oxa-2,8-diaza-spiro[4,5]dec-2-ene-3-carboxylic acid (2-ethylsulphanyl-ethyl)-amide] | 45% |  |
| CN(C)S(=O)(=O)N1CCC2(CC1)CC(C(=O)N1CCN(CCCc3ccccc3)CC1)=NO2 [Example 80, 3-[4-(3-phenyl-propyl)-piperazine-1-carbonyl]-1-oxa-2,8-diaza-spiro[4,5]dec-2-ene-8-sulphonic acid dimethylamide] | 60% |  |
| O=C(NC1CCCC1OCc1ccccc1)C1=NOC2(CCN(S(=O)(=O)c3ccc(F)cc3)CC2)C1 (stereo not shown) [Example 199] |  | 78% |
| Cc1ccc(C(C)NC(=O)C2=NOC3(CCN(S(=O)(=O)c4cccs4)CC3)C2)cc1 (stereo not shown) [Example 23, 8-(thiophene-2-sulphonyl)-1-oxa-2,8-diaza-spiro[4,5]dec-2-ene-3-carboxylic acid (1-p-tolyl-ethyl)-amide] | 49% |  |

target: T2, 5HT-uptake (Rattus norvegicus, UniProt P31652); test: Serotonin uptake inhibition (5HT uptake) in synaptosomes; format: biochemical; conditions: rat brain synaptosomes
T2 construct: synaptosomes from rat brain regions were freshly isolated; from tissue; host or cells: P2 synaptosome fraction from rat brain regions
T2 sequence (P31652 whole entry): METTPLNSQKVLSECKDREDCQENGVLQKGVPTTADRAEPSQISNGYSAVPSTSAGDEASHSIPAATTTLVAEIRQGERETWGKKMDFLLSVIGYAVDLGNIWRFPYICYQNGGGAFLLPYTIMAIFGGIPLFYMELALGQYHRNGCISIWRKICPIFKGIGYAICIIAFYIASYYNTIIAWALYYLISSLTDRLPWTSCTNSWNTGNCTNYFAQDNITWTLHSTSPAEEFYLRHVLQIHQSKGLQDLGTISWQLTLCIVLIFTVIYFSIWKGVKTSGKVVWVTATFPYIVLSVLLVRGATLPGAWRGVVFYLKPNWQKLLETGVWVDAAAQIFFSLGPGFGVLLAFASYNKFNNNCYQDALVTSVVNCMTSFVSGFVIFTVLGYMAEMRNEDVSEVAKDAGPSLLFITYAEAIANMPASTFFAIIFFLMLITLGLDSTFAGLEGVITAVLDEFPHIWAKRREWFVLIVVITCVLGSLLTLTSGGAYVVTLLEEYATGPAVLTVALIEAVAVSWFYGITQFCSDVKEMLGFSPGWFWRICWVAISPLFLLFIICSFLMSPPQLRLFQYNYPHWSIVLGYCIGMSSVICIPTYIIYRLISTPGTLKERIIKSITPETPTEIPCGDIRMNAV

| inhibition at 10 µM | Compound | 5HT-uptake, 10 μM, % inhibition |
| --- | --- | --- |
| 52% | CCOC(=O)N1CCC(NC(=O)C2=NOC3(CCN(C(=O)c4ccc(F)cc4F)CC3)C2)CC1 [Example 56, 4-{[8-(2,4-difluoro-benzoyl)-1-oxa-2,8-diaza-spiro[4,5]dec-2-ene-3-carbonyl]-amino}-piperidine-1-carboxylic acid ethyl ester] |  |
|  | O=C(C1=NOC2(CCN(S(=O)(=O)c3cccc(C(F)(F)F)c3)CC2)C1)N1CCN(Cc2ccc3ccccc3c2)CC1 [Example 35, (4-naphthalen-2-ylmethyl-piperazin-l-yl)-[8-(3-trifluoromethyl-benzenesulphonyl)-1-oxa-2,8-diaza-spiro[4,5]dec-2-en-3-yl]-methanone] | 44% |
| 65% | O=C(NCc1cc(F)cc(C(F)(F)F)c1)C1=NOC2(CCN(S(=O)(=O)c3cc(Cl)ccc3Cl)CC2)C1 [Example 39, 8-(2,5-dichloro-benzenesulphonyl)-1-oxa-2,8-diaza-spiro[4,5]dec-2-ene-3-carboxylic acid 3-fluoro-5-trifluoromethyl-benzylamide] |  |
| 55% | CN(C)S(=O)(=O)N1CCC2(CC1)CC(C(=O)NCCc1ccc(Cl)cc1)=NO2 [Example 58, 8-dimethylsulphamoyl-1-oxa-2,8-diaza-spiro[4,5]dec-2-ene-3-carboxylic acid [2-(4-chlorophenyl)-ethyl]-amide] |  |
|  | CN(CCc1c[nH]c2ccccc12)C(=O)C1=NOC2(CCN(S(=O)(=O)c3ccc(OC(F)(F)F)cc3)CC2)C1 [Example 16, 8-(4-trifluoromethoxy-benzenesulphonyl)-1-oxa-2,8-diaza-spiro[4,5]dec-2-ene-3 carboxylic acid [2-(1 H-indo1-3-yl)-ethyl]-methyl-amide] | 60% |
|  | COC(=O)C(Cc1c[nH]c2ccccc12)NC(=O)C1=NOC2(CCN(S(=O)(=O)c3ccc(OC(F)(F)F)cc3)CC2)C1 (stereo not shown) [Example 1, 3-(1H-indo1-3-yl)-2-{[8-(4-trifluoromethoxy-benzene-sulphonyl)-1-oxa-2,8-diaza-spiro[4,5]dec-2-ene-3-carbonyl]-amino}-propionic acid methyl ester] | 47% |
|  | O=C(C1=NOC2(CCN(S(=O)(=O)c3cc(Cl)ccc3Cl)CC2)C1)N1CCN(c2ncnc3sccc23)CC1 [Example 29] | 42% |
| 46% | O=C(NC1CCCCCCC1)C1=NOC2(CCN(S(=O)(=O)c3ccc(OC(F)(F)F)cc3)CC2)C1 [Example 86, 8-(4-trifluoromethoxy-benzenesulphonyl)-1-oxa-2,8-diaza-spiro[4,5]dec-2-ene-3-carboxylic acid cyclooctylamide] |  |
| 54% | CN(C)S(=O)(=O)N1CCC2(CC1)CC(C(=O)N1CCN(c3ncnc4sccc34)CC1)=NO2 [Example 70, 3-(4-thieno[2,3-d]pyrimidin-4-yl-piperazine-1-carbonyl)-1-oxa-2,8-diaza-spiro[4,5]dec-2-ene-8-sulphonic acid dimethylamide] |  |
| 48% | CCOC(=O)N1CCC(NC(=O)C2=NOC3(CCN(S(=O)(=O)c4cc([N+](=O)[O-])ccc4C)CC3)C2)CC1 [Example 90, 4-{[8-(2-methyl-5-nitro-benzenesulphonyl)-1-oxa-2,8-diaza-spiro[4,5]dec-2-ene-3-carbonyl]-amino}-piperidine-1-carboxylic acid ethyl ester] |  |

| Compound | inhibition at 10 µM | 5HT-uptake, 10 μM, % inhibition |
| --- | --- | --- |
| CN(Cc1cccnc1)C(=O)C1=NOC2(CCN(S(=O)(=O)c3cc(Cl)ccc3Cl)CC2)C1 [Example 92, 8-(2,5-dichloro-benzenesulphonyl)-1-oxa-2,8-diaza-spiro[4,5]dec-2-ene-3-carboxylic acid methyl-pyridin-3-ylmethyl-amide] | 51% |  |
| CCCC(=O)N1CCC2(CC1)CC(C(=O)Nc1ccccc1)=NO2 [Example 85, 8-butyryl-1-oxa-2,8-diaza-spiro[4,5]dec-2-ene-3-carboxylic acid phenylamide] | 41% |  |
| Cc1ccc([N+](=O)[O-])cc1S(=O)(=O)N1CCC2(CC1)CC(C(=O)NCCN(C)C)=NO2 [Example 19, 8-(2-methyl-5-nitro-benzenesulphonyl)-1-oxa-2,8-diaza-spiro[4,5]dec-2-ene-3 carboxylic acid (2-dimethylamino-ethyl)-amide] | 80% |  |

From US8557796B2, “Substituted 1-oxa-2,8-diaza-spiro [4,5] dec-2-ene derivatives and related treatment methods” (Gruenenthal GmbH, priority 2001, dated 2013)
